Assay results: patent publication US9145437B2, “Urea compounds” (Eli Lilly and Company, priority 2013, dated 2015)

What was measured:
[1] = target: T1, human SGLT1 (Homo sapiens, UniProt P13866); assay: Sodium-dependent 14C-AMG uptake assay in CHO-K1 cells expressing human SGLT1; assay type: cell-based; details: n=5
T1 construct: expressed in transfected cells
T1 sequence (P13866 1-664): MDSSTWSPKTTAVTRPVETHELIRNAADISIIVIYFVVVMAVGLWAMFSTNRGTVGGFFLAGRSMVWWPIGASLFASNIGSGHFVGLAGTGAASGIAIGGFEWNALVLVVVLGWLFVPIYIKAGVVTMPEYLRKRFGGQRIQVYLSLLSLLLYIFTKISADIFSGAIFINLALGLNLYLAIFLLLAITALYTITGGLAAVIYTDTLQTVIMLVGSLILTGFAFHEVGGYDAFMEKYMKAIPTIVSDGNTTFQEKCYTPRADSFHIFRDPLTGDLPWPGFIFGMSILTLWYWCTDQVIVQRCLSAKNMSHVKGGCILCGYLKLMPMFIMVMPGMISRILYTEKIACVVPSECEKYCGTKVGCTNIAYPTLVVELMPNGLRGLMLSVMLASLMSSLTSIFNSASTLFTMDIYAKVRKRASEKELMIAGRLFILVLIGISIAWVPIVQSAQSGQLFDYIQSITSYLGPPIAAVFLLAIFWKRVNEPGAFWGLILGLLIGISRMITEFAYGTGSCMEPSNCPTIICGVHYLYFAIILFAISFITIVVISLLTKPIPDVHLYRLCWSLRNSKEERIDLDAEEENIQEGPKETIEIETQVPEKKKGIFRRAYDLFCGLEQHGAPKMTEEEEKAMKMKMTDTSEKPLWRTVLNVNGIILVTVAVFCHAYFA
Excerpt: (§1) The cDNA encoding human SGLT1 (slc5al, NM_000343) and mouse SGLT1 (slc5al, NM_019810.4) are purchased from Openbiosystems, Invitrogen and Openbiosystems, respectively. The cDNA is cloned into pcDNA3.1+ for mammalian expression and is stably transfected into Chinese hamster ovary (CHO)-K1 cells using standard mammalian transfection procedures. An SGLT-expressing sub-clone of each over-expressing cell line is selected based on resistance to neomycin (Geneticin, Invitrogen) and activity in the ^14C-α-methyl-D-glucopyranoside (^14C-AMG) uptake assay (see below). Stable SGLT-expressing cells are maintained using standard cell culture techniques.
(§2) The SGLT activity is measured as sodium-dependent ^14C-AMG uptake in the above cell lines described as follows. One hundred μL of culture medium containing 30,000 cells are seeded to each well of a 96-well BioCoat poly-D-lysine plate (Becton Dickson) and cultured at 37° C. overnight. The culture medium is aspirated and cells are washed twice with 200 μL of Reaction Buffer (140 mM NaCl, 2 mM KCl, 1 mM CaCl2, MgCl2, and 14 mM N-2-hydroethylpiperrazine-N′-2-ethanesulfonic acid (Hepes), pH 7.5). The excess buffer is tapped out onto paper towels. Thirty-five μL of Reaction Buffer are added to each well. […] After mixing, the scintillation signal in the plate is counted in a MicroBeta (PerkinElmer). […]

[2] = target: T2, mouse SGLT1 (Mus musculus, UniProt Q8C3K6); assay: Sodium-dependent 14C-AMG uptake assay in CHO-K1 cells expressing mouse SGLT1; assay type: cell-based; details: n=5
T2 construct: expressed in transfected cells
T2 sequence (Q8C3K6 1-665): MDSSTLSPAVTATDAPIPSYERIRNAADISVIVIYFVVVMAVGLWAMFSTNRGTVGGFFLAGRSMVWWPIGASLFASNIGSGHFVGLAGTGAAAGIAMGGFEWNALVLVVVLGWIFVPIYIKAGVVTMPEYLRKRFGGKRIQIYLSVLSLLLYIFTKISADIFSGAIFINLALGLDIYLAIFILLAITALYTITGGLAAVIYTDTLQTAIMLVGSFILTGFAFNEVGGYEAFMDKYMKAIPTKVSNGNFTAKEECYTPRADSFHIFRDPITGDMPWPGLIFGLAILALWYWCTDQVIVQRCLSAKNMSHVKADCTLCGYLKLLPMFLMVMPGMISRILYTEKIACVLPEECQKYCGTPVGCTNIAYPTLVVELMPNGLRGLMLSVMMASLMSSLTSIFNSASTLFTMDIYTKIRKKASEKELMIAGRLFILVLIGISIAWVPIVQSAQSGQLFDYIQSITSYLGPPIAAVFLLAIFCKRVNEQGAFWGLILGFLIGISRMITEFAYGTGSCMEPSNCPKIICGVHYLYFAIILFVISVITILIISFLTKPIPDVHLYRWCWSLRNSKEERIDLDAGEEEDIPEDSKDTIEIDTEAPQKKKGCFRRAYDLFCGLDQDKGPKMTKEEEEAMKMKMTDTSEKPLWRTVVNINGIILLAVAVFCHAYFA
Excerpt: as §1, §2

[3] = test system: C57Bl/6 mice; assay: Glucose lowering effects in oral glucose tolerance test (OGTT); assay type: in vivo, mouse; set-up: Baseline Adjusted AUC (glucose): unit not given here; details: for Glucose 20 Minute / Glucose 40 Minute / Glucose 60 Minute / Baseline Adjusted AUC (glucose) / Glucose Cmax / Glucose Tmax / Glucose 0 Minute: 10 mg/kg oral, Mean ± SEM; for Glucose 20 Minute: 20 min after 3 g/kg dextrose; for Glucose 40 Minute: 40 min after 3 g/kg dextrose; for Glucose 60 Minute: 60 min after 3 g/kg dextrose; for Glucose 0 Minute: baseline before 3 g/kg dextrose
Procedure: The test compound is formulated by adding a vehicle of 1% hydroxyethylcellulose, 0.25% Tween® 80 w/antifoam 0.05% to preweighed test compound to make a 1 mg/ml solution. The mixture is probe sonicated for approximately 1 minute. A stir bar is added, and the resulting suspension is stirred continuously throughout dosing.
The first set of mice receiving an OGTT 18 hours after compound administration, the second 8 hours after compound administration. The first set of animals are weighed and body weights used to determine study groups (n=5), within a working range of 26-30 g. After grouping, the mice are orally gavaged with 10 ml/kg of test compound preparation or vehicle, thirty seconds apart. […] Both sets, 18 and 8 hour OGTT, of mice are then fasted overnight by removing access to food, late afternoon before test day. The following morning, the 8 hour OGTT mice are weighed and bled (via tail snip) for glucose. Study groups (n=5) are determine using fasted glucose values, within a working range of 80-100 mg/dl. After grouping the mice are orally gavaged with compound, thirty seconds apart. These mice then receive an OGTT 8 hours after compound administration.
At eight and eighteen hours after each respective compound treatment is started, a baseline blood sample is taken for measuring glucose (from the first animal). The animal is then immediately given an oral dose of 50% dextrose (Hospira®) at 3 g/kg. Blood samples are taken for glucose, exactly thirty seconds apart, by tail vein so that blood is collected in each animal at 20, 40, and 60 minutes after the dextrose dose.

Cc1cccc2c1c(Cc1ccc(OCCCN3CCCC4(CCN(C(=O)CNC(=O)NCC(C)C)CC4)C3)cc1)cn2[C@@H]1O[C@H](CO)[C@@H](O)[C@H](O)[C@H]1O [Example 1, 1-isobutyl-3-[2-[4-[3-[4-[[4-methyl-1-[(2R,3R,4S,5S,6R)-3,4,5-trihydroxy-6-(hydroxymethyl)tetrahydropyran-2-yl]indol-3-yl]methyl]phenoxy]propyl]-4,9-diazaspiro[5.5]undecan-9-yl]-2-oxo-ethyl]urea]
IC50 [1]: 35.2 ± 14.1 nM | IC50 [2]: 14.9 ± 10.4 nM | Glucose 20 Minute ([3]; OGTT 8 hrs post dose): 114 ± 3.36 mg/dL | Glucose 40 Minute ([3]; OGTT 8 hrs post dose): 131 ± 6.81 mg/dL | Glucose 60 Minute ([3]; OGTT 8 hrs post dose): 125.8 ± 7.52 mg/dL | Baseline Adjusted AUC (glucose) ([3]; OGTT 8 hrs post dose): 2370 ± 315 | Glucose Cmax ([3]; OGTT 8 hrs post dose): 132.9 ± 6.68 mg/dL | Glucose Tmax ([3]; OGTT 8 hrs post dose): 44 ± 7.48 min | Glucose 0 Minute ([3]; OGTT 8 hrs post dose): 75.8 ± 2.48 mg/dL | Glucose 20 Minute ([3]; OGTT 18 hrs post dose): 121.4 ± 5.16 mg/dL | Glucose 40 Minute ([3]; OGTT 18 hrs post dose): 127 ± 9.78 mg/dL | Glucose 60 Minute ([3]; OGTT 18 hrs post dose): 125 ± 7.27 mg/dL | Baseline Adjusted AUC (glucose) ([3]; OGTT 18 hrs post dose): 2258 ± 252 | Glucose Cmax ([3]; OGTT 18 hrs post dose): 134.2 ± 6.72 mg/dL | Glucose Tmax ([3]; OGTT 18 hrs post dose): 44 ± 7.48 min | Glucose 0 Minute ([3]; OGTT 18 hrs post dose): 79.2 ± 4.51 mg/dL | glucose excursion after oral bolus of 50% dextrose ([3]; normal glycemic C57Bl/6 mouse, eight or eighteen hours after administration): decrease
